Calls of active or inactive are those of the source. The calls are words filed in the database; no cut-off is given here.
Experiments:
Mus musculus = assay: In vivo inhibition of STK3/4 in C57BL/6 mouse assessed as decrease in Thr35phosphorylated-MOB1 protein level in liver at 10 mg/kg, ip administered for 1 hr by Western blotting analysis; type: functional, organism-based
[1] = Cmax in C57BL/6 mouse at 10 mg/kg, ip measured upto 24 hrs by LC-MS/MS analysis; type: ADME, organism-based; parameters: route intraperitoneal, dose 10 mg/kg, time <=24; conditions: in vivo
[2] = AUC (0 to t) in C57BL/6 mouse at 10 mg/kg, ip measured upto 24 hrs by LC-MS/MS analysis; type: ADME, organism-based; parameters: dose 10 mg/kg, time <=24; conditions: in vivo
[3] = Half life in C57BL/6 mouse at 10 mg/kg, ip measured upto 24 hrs by LC-MS/MS analysis; type: ADME, organism-based; conditions: in vivo
Kasumi 1 = assay: Antiproliferation activity against human Kasumi 1 cells incubated for 72 hrs by celltiter-glo assay; type: functional, cell-based
[4] = molecular target: T1, Serine/threonine-protein kinase 3 (Homo sapiens) (UniProt Q13188); assay: Inhibition of STK3 (unknown origin) by KdELECT assay
T1 sequence (whole entry): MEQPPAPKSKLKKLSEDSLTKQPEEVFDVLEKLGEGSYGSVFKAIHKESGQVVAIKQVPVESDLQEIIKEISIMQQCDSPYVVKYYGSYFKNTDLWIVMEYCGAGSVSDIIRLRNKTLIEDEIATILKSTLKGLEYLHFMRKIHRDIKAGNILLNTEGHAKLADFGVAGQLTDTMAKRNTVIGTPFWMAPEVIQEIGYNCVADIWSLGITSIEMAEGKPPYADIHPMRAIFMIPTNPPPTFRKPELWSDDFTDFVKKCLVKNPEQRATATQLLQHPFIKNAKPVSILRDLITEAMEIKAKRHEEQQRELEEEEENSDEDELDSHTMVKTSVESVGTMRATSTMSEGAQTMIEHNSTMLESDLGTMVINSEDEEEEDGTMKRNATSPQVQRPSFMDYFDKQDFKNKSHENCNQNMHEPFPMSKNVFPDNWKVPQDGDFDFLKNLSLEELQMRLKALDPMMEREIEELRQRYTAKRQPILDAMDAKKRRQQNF

[5] = molecular target: T2, Serine/threonine-protein kinase 3 (Homo sapiens, UniProt Q13188)
T2 sequence (Q13188 whole entry): T1 sequence (whole entry)

[6] = molecular target: T2, Serine/threonine-protein kinase 3; remark: listed apart in the source
Description: Displacement of K5 tracer from full length C-terminal NanoLuc fused human STK3 expressed in HEK293T cells incubated for 2 hrs by NanoBRET assay

MOLM-13 [7] = assay: Inhibition of MOB1 phosphorylation in human MOLM-13 cells assessed as decrease in pMOB1 activity at 1 uM preincubated for 4 hrs followed by H2O2 addition for 2 hrs by Western blotting analysis; type: cell-based; conditions: time 6.0 hrs
[8] = Kinetic solubility of compound in PBS at pH 7.4; type: physicochemical; conditions: buffer
[9] = Permeability in human Caco-2 cells; type: ADME, cell-based
[10] = molecular target: T3, Serine/threonine-protein kinase RIO3 (Homo sapiens) (UniProt O14730); assay: Inhibition of wild type full length human RIOK3 (M1 to E519 residues) expressed in bacterial expression system by KdELECT assay
T3 sequence (whole entry): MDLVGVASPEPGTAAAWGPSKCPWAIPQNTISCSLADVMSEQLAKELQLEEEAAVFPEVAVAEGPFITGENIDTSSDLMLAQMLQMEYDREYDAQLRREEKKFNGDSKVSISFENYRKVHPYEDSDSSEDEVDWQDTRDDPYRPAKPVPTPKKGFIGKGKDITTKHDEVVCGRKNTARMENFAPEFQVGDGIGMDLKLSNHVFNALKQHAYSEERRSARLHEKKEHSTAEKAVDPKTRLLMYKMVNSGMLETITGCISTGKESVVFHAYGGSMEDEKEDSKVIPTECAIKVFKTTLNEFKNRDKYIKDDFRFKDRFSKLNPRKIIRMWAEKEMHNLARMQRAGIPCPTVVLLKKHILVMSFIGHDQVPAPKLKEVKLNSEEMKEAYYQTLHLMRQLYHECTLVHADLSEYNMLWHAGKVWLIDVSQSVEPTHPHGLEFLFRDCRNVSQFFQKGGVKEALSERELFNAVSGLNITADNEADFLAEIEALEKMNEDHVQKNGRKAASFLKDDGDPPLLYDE

THP-1 = assay: Antiproliferation activity against human THP-1 cells incubated for 72 hrs by celltiter-glo assay; type: functional, cell-based
[11] = molecular target: T4, Serine/threonine-protein kinase 4 (Homo sapiens, UniProt Q13043)
T4 sequence (Q13043 whole entry): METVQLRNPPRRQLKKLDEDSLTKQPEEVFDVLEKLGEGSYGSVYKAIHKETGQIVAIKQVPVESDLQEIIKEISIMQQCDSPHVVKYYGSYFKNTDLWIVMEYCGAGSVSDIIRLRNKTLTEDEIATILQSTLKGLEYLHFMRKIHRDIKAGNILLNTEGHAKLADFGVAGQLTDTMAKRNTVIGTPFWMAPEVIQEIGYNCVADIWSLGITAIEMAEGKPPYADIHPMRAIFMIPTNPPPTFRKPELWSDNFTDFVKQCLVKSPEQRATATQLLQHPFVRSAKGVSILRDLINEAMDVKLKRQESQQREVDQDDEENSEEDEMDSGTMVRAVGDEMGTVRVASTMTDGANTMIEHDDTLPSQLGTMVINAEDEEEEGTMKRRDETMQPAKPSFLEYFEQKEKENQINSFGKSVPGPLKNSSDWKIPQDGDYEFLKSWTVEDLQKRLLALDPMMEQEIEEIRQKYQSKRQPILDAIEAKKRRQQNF
Description: Displacement of K5 tracer from full length C-terminal NanoLuc fused human STK4 expressed in HEK293T cells incubated for 2 hrs by NanoBRET assay

[12] = molecular target: Leucine-rich repeat serine/threonine-protein kinase 2 (Homo sapiens, UniProt Q5S007); assay: Displacement of K5 tracer from full length C-terminal NanoLuc fused human LRRK2 expressed in HEK293T cells incubated for 2 hrs by NanoBRET assay; type: cell-based
[13] = molecular target: T4, Serine/threonine-protein kinase 4; remark: listed apart in the source
[14] = Drug concentration in C57BL/6 mouse plasma at 20 mg/kg, ip measured after 30 mins by LC-MS/MS analysis; type: ADME, organism-based
MOLM-13 [15] = assay: Antiproliferation activity against human MOLM-13 cells incubated for 72 hrs by celltiter-glo assay; type: functional, cell-based
[16] = Tmax in C57BL/6 mouse at 10 mg/kg, ip measured upto 24 hrs by LC-MS/MS analysis; type: ADME, organism-based; conditions: in vivo
[17] = molecular target: T5, Serine/threonine-protein kinase STK11 (Homo sapiens) (UniProt Q15831); assay: Inhibition of LKB1 (unknown origin) by NanoBRET intracellular kinase assay; type: cell-based; conditions: time 2.0 hrs
T5 sequence (whole entry): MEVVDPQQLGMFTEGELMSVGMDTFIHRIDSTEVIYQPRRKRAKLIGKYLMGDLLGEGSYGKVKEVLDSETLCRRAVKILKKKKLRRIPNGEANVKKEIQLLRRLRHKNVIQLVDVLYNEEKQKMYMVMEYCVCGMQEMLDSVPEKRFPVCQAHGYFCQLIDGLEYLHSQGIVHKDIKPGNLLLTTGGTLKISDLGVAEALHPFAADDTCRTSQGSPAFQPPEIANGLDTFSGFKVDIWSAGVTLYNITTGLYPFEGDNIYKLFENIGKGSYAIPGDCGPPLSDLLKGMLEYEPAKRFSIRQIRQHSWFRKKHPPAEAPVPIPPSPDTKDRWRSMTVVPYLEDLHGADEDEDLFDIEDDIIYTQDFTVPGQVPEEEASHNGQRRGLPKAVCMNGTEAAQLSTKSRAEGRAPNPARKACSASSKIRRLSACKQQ

[18] = molecular target: BMP-2-inducible protein kinase (Homo sapiens) (UniProt Q9NSY1); assay: Inhibition of BMP2K (unknown origin) by NanoBRET intracellular kinase assay; type: cell-based; conditions: time 2.0 hrs
SKNO-1 = assay: Antiproliferation activity against human SKNO-1 cells incubated for 72 hrs by celltiter-glo assay; type: functional, cell-based
[19] = molecular target: T1, Serine/threonine-protein kinase 3 (Homo sapiens); assay: Inhibition of STK3 in HEK293 cells assessed as increase in YAP/TAZ-TEAD activity at 10 uM incubated for 48 hrs by Dual-Glo luciferase assay; type: cell-based
[20] = molecular target: Protein kinase C theta type (Homo sapiens) (UniProt Q04759); assay: Inhibition of wild type partial length human PRKCQ (L350 to S706 residues) expressed in bacterial expression system by KdELECT assay
OCI-AML-3 = assay: Antiproliferation activity against human OCI-AML-3 cells incubated for 72 hrs by celltiter-glo assay; type: functional, cell-based
MV4-11 = assay: Antiproliferation activity against human MV4-11 cells incubated for 72 hrs by celltiter-glo assay; type: functional, cell-based
[21] = molecular target: T1, Serine/threonine-protein kinase 3 (Homo sapiens); assay: Inhibition of recombinant N-terminal His6-tagged human STK3 (18 to 311 residues) expressed in Escherichia coli assessed as melting temperature at 20 uM by thermal shift assay
[22] = Drug concentration in C57BL/6 mouse liver at 10 mg/kg, ip administered for 3 hrs; type: ADME, organism-based; conditions: read-out: Ct
[23] = Drug concentration in C57BL/6 mouse liver at 10 mg/kg, ip administered for 1 hr; type: ADME, organism-based; conditions: read-out: Ct
[24] = molecular target: T6, Serine/threonine-protein kinase 4 (Homo sapiens) (UniProt Q13043); conditions: dose 20.0 µM
T6 sequence (whole entry): T4 sequence (Q13043 whole entry)
Description: Inhibition of recombinant N-terminal His6-tagged human STK4 (43 to 431 residues) expressed in Escherichia coli assessed as melting temperature at 20 uM by thermal shift assay (Rvb = 55 degreeC)

[25] = Drug concentration in C57BL/6 mouse liver at 10 mg/kg, ip administered for 2 hrs; type: ADME, organism-based; conditions: read-out: Ct
[26] = Inhibition of MOB1 phosphorylation in human MOLM-13 cells assessed as decrease in pMOB1 activity preincubated for 4 hrs followed by H2O2 addition for 2 hrs by Western blotting analysis; type: cell-based

Chain of Leucine-rich repeat serine/threonine-protein kinase 2 (Q5S007 whole entry, the tested form may be a part): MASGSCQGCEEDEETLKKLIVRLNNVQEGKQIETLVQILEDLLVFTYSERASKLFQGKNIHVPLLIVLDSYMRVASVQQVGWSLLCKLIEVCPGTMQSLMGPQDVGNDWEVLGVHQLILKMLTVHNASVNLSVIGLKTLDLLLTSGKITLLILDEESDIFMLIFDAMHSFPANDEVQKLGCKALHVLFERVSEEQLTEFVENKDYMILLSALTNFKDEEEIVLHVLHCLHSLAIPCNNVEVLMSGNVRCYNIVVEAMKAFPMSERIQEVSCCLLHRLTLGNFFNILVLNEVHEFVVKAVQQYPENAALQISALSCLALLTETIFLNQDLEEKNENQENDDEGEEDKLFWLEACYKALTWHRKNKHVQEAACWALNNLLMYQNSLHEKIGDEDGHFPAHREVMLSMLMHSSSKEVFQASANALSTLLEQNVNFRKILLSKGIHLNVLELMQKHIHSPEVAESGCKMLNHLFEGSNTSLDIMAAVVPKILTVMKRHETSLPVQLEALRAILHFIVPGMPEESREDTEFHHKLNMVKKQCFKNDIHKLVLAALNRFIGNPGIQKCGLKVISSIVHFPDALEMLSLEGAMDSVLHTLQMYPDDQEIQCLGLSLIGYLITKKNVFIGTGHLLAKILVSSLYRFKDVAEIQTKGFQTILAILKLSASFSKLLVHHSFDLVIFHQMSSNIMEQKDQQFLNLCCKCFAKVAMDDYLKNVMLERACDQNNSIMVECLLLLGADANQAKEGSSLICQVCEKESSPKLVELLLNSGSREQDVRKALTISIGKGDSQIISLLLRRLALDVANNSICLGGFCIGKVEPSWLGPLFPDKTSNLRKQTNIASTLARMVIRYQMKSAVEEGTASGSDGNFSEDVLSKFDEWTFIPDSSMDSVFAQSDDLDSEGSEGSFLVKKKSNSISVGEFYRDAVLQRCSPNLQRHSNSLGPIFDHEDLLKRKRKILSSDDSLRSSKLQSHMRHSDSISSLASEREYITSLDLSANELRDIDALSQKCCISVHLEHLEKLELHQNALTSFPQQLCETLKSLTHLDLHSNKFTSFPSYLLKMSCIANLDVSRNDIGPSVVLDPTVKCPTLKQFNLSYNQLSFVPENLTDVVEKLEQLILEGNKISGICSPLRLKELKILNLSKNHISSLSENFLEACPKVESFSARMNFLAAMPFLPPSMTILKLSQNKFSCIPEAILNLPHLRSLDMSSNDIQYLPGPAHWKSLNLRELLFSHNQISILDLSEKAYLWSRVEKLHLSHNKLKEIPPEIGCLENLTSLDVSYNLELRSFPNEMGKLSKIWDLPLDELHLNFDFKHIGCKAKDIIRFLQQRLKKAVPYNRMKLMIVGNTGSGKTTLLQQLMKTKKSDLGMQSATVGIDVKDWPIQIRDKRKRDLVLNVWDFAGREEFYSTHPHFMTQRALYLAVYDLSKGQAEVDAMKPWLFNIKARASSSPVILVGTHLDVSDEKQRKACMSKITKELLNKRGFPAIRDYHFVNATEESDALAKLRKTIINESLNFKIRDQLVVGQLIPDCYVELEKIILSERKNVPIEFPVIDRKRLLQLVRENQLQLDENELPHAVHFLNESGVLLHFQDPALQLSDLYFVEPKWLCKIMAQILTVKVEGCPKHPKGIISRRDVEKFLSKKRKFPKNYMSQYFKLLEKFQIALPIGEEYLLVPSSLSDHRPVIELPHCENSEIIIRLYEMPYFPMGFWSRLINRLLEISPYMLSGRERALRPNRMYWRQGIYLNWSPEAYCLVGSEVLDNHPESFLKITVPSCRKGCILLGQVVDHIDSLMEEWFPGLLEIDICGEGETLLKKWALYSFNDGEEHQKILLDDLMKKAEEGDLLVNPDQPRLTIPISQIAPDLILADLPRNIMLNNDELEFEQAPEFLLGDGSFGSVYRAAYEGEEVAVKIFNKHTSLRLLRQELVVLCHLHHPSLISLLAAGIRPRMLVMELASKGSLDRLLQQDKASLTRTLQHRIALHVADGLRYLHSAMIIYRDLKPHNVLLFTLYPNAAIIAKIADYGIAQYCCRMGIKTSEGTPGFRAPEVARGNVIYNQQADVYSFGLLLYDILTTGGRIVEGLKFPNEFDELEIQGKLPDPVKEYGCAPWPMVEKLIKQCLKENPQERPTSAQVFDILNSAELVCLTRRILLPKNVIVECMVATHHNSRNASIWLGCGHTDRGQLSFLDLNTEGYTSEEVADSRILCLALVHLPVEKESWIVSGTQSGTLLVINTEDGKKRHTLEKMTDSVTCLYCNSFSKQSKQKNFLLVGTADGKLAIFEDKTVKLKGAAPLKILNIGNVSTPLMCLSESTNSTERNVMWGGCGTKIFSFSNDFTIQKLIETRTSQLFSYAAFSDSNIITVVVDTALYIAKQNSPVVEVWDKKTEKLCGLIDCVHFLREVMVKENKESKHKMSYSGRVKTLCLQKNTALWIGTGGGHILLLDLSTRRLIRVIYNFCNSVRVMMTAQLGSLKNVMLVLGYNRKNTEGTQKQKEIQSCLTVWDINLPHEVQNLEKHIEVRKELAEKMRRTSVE
Chain of Protein kinase C theta type (Homo sapiens) (Q04759 whole entry, looked up, the tested form may be a part): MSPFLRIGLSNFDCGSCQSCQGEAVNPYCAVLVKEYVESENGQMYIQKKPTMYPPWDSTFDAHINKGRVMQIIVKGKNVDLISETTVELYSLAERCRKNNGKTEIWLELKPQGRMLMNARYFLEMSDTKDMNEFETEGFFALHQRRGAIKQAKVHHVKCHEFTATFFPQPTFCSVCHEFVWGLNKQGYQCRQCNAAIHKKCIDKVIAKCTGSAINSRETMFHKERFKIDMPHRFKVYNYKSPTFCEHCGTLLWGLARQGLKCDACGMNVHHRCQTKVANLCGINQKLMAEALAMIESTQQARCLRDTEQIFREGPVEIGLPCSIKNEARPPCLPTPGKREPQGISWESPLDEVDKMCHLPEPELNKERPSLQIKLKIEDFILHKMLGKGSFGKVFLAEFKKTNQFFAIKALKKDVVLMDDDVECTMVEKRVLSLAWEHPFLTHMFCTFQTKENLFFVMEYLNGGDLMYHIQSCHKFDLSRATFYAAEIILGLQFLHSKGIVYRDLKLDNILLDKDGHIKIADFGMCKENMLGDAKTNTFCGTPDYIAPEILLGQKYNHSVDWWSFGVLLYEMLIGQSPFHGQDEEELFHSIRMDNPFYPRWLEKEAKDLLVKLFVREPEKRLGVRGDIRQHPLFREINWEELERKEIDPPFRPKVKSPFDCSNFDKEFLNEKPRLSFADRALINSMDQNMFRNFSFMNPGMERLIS
Chain of BMP-2-inducible protein kinase (Homo sapiens) (Q9NSY1 whole entry, looked up): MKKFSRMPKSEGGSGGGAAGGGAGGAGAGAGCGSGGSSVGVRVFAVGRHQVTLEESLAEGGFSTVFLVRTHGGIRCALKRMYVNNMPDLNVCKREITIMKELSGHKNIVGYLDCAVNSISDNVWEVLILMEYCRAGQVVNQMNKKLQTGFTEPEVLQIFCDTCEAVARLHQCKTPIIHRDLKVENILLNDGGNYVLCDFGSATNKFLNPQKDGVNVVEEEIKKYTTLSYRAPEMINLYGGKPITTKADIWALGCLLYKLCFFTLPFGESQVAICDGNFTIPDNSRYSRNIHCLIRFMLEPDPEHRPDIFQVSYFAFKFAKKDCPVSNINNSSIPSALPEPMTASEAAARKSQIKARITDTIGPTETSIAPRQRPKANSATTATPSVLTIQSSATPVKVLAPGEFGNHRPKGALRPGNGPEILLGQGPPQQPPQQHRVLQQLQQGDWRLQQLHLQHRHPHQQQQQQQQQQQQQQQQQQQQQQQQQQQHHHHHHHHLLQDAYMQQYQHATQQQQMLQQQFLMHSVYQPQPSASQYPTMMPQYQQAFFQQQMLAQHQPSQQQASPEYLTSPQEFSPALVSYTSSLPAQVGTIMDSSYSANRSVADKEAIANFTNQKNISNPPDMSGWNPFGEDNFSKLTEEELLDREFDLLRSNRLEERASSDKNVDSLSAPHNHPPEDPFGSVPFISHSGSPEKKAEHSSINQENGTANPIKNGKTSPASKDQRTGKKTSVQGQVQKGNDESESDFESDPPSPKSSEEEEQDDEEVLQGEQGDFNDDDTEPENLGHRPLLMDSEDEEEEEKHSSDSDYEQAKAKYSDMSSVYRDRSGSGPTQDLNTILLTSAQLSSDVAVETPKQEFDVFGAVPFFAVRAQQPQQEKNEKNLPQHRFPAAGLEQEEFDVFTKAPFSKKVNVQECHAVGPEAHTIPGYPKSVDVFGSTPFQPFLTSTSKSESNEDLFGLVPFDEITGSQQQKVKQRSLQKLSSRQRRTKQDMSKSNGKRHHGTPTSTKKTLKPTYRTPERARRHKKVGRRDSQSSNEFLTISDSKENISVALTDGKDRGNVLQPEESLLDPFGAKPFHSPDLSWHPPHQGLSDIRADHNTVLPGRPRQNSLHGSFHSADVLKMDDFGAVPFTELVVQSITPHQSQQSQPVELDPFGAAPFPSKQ

| SMILES | inhibition (Mus musculus) | Cmax [1] | AUCt [2] | t1/2 [3] | Activity (Kasumi 1) | inhibition [4] | IC50 [5] | IC50 [6] | inhibition [10] | Activity (THP-1) | IC50 [11] | IC50 [12] | IC50 [13] | concentration at 0.5 h [14] | Tmax [16] | inhibition [17] | inhibition [18] | Activity (SKNO-1) | inhibition [19] | inhibition [20] | other results |
| --- | --- | --- | --- | --- | --- | --- | --- | --- | --- | --- | --- | --- | --- | --- | --- | --- | --- | --- | --- | --- | --- |
| OC1CCN(c2ncnc3[nH]cc(-c4cccc(Cl)c4)c23)CC1 | Active | 5.8 µM | 4.3 µmol·h/L | 9.9 h | Dose-Dependent Effect | Active | 127 nM | 433 nM | Active | Dose-Dependent Effect | 250 nM | 1340 nM | 80 nM | 11.6 µM | 15 min | inactive | inactive | Dose-Dependent Effect | Active | Active | inhibition (MOLM-13 [7]): Active; Kinetic_solubility [8]: 189 µM; permeability [9]: Permeable; Activity (MOLM-13 [15]): Dose-Dependent Effect; Activity (OCI-AML-3): Dose-Dependent Effect; Activity (MV4-11): Dose-Dependent Effect; ΔTm [21]: > 5.2 °C |
| NC(=O)c1cccc(-c2c[nH]c3ncnc(N4CCOCC4)c23)c1 | Active | 11.9 µM | 9.5 µmol·h/L | 0.7 h |  |  | 233 nM | 303 nM |  |  |  | 2360 nM |  | 15.9 µM | 30 min |  |  |  | Active |  | concentration at 3 h [22]: 1200 nM; concentration at 1 h [23]: 28 µM; Tm [24]: 63.3 °C; concentration at 2 h [25]: 2500 nM |
| CC(=O)NC1CCN(c2ncnc3[nH]cc(-c4cccc(Cl)c4)c23)CC1 | Active | 11.8 µM | 8.1 µmol·h/L | 5.3 h | Dose-Dependent Effect | Active | 36 nM | 139 nM | Active | Dose-Dependent Effect | 122 nM | 1390 nM | 26 nM |  | 15 min | inactive | inactive | Dose-Dependent Effect |  | Active | IC50 (MOLM-13 [15]; MOLM-13, 72 h): 5.8 µM; IC50 [26]: 413 nM; Activity (OCI-AML-3): Dose-Dependent Effect; IC50 (MV4-11; MV4-11, 72 h): 3.7 µM |
